# Experimental data taken from ChEMBL document CHEMBL5108031, “Novel N-(4-thiocyanatophenyl)-1H-1,2,3-triazole-4-carboxamides exhibit selective cytotoxic activity at nanomolar doses towards human leukemic T-cells” (Eur J Med Chem, 2022).
# The source made the active and inactive calls. The rule behind the calls is not given here.
# Legend:
# [1] = system: Jurkat; test: Induction of apoptosis in human Jurkat cells assessed as fragmented DNA and nuclei at 0.5 uM measured after 24 hrs by Hoechst 33342/propidium iodide staining based fluorescence microscopic analysis; type: functional, cell-based
# [2] = system: HEK293; test: Antiproliferative activity against human HEK293 cells incubated for 72 hrs and measured by MTT assay; type: functional
# [3] = system: MDA-MB-468; test: Antiproliferative activity against human MDA-MB-468 cells assessed as relative cell growth at 10 uM incubated for 48 hrs and measured by SRB assay; type: functional; details: read-out: Activity
# [4] = system: NCI-H460; test: Antiproliferative activity against human NCI-H460 cells incubated for 48 hrs and measured by SRB assay; type: functional, cell-based; details: NCI-H460, 48 h
# [5] = system: Jurkat; test: Induction of DNA damage in human Jurkat cells assessed as DNA fragmentation at 0.5 uM measured by Diphenylamine assay; type: functional
# [6] = system: SF-295; test: Antiproliferative activity against human SF-295 cells assessed as relative cell growth at 10 uM incubated for 48 hrs and measured by SRB assay; type: functional; details: read-out: Activity
# [7] = system: Jurkat; test: Induction of DNA damage in human Jurkat cells assessed as tail DNA at 0.5 uM measured after 24 hrs by comet assay; type: functional
# [8] = biological target: Heat shock protein HSP 90-alpha (Homo sapiens, UniProt P07900); test: Inhibition of Hsp90alpha (unknown origin)
# [9] = system: HOP-92; test: Antiproliferative activity against human HOP-92 cells incubated for 48 hrs and measured by SRB assay; type: functional
# [10] = system: CAKI-1; test: Antiproliferative activity against human CAKI-1 cells assessed as relative cell growth at 10 uM incubated for 48 hrs and measured by SRB assay; type: functional; details: read-out: Activity
# [11] = system: LOX IMVI; test: Antiproliferative activity against human LOX IMVI cells incubated for 48 hrs and measured by SRB assay; type: functional
# [12] = system: MDA-MB-231; test: Antiproliferative activity against human MDA-MB-231 cells incubated for 72 hrs and measured by MTT assay; type: functional
# [13] = system: A549; test: Antiproliferative activity against human A549 cells incubated for 72 hrs and measured by MTT assay; type: functional
# [14] = system: SF-295; test: Antiproliferative activity against human SF-295 cells incubated for 48 hrs and measured by SRB assay; type: functional
# [15] = system: HL-60(TB); test: Antiproliferative activity against human HL-60(TB) cells incubated for 48 hrs and measured by SRB assay; type: functional
# [16] = system: HaCaT; test: Antiproliferative activity against human HaCaT cells incubated for 72 hrs and measured by MTT assay; type: functional
# [17] = system: TK-10; test: Antiproliferative activity against human TK-10 cells incubated for 48 hrs and measured by SRB assay; type: functional
# [18] = system: Jurkat; test: Antiproliferative activity against human Jurkat cells incubated for 72 hrs and measured by MTT assay; type: functional
# [19] = system: HCT-116; test: Antiproliferative activity against p53-deficient human HCT-116 cells incubated for 72 hrs and measured by MTT assay; type: functional
# [20] = system: K562; test: Antiproliferative activity against human K562 cells incubated for 72 hrs and measured by MTT assay; type: functional
# [21] = system: CCRF-CEM; test: Antiproliferative activity against human CCRF-CEM cells assessed as relative cell growth at 10 uM incubated for 48 hrs and measured by SRB assay; type: functional; details: read-out: Activity
# [22] = system: Jurkat; test: Induction of apoptosis in human Jurkat cells assessed as condensed chromatin at 0.5 uM measured after 24 hrs by Hoechst 33342/propidium iodide staining based fluorescence microscopic analysis; type: functional, cell-based
# [23] = system: THP-1; test: Antiproliferative activity against human THP-1 cells incubated for 72 hrs and measured by MTT assay; type: functional
# [24] = system: NCI-H460; test: Antiproliferative activity against human NCI-H460 cells assessed as relative cell growth at 10 uM incubated for 48 hrs and measured by SRB assay; type: functional; details: read-out: Activity
# [25] = system: UO-31; test: Antiproliferative activity against human UO-31 cells assessed as relative cell growth at 10 uM incubated for 48 hrs and measured by SRB assay; type: functional; details: read-out: Activity
# [26] = system: Jurkat; test: Induction of apoptosis in human Jurkat cells assessed as cell debris at 0.5 uM measured after 24 hrs by Hoechst 33342/propidium iodide staining based fluorescence microscopic analysis; type: functional
# [27] = system: A498; test: Antiproliferative activity against human A498 cells assessed as relative cell growth at 10 uM incubated for 48 hrs and measured by SRB assay; type: functional; details: read-out: Activity
# [28] = system: Jurkat; test: Induction of apoptosis in human Jurkat cells assessed as decrease in mitochondrial membrane potential at 0.5 uM measured after 24 hrs by Rhodamine 123 fluorescence based assay; type: functional, cell-based
# [29] = system: MOLT-4; test: Antiproliferative activity against human MOLT-4 cells assessed as relative cell growth at 10 uM incubated for 48 hrs and measured by SRB assay; type: functional; details: read-out: Activity
# [30] = system: NCI-H522; test: Antiproliferative activity against human NCI-H522 cells incubated for 48 hrs and measured by SRB assay; type: functional
# [31] = system: Jurkat; test: Induction of DNA damage in human Jurkat cells assessed as olive tail moment at 0.5 uM measured after 24 hrs by comet assay; type: functional
# [32] = system: HeLa; test: Antiproliferative activity against human HeLa cells incubated for 72 hrs and measured by MTT assay; type: functional
# [33] = system: SF-539; test: Antiproliferative activity against human SF-539 cells assessed as relative cell growth at 10 uM incubated for 48 hrs and measured by SRB assay; type: functional; details: read-out: Activity
# [34] = system: LOX IMVI; test: Antiproliferative activity against human LOX IMVI cells assessed as relative cell growth at 10 uM incubated for 48 hrs and measured by SRB assay; type: functional; details: read-out: Activity
# [35] = system: HCC 2998; test: Antiproliferative activity against human HCC 2998 cells assessed as relative cell growth at 10 uM incubated for 48 hrs and measured by SRB assay; type: functional; details: read-out: Activity
# [36] = system: Jurkat; test: Induction of apoptosis in human Jurkat cells assessed as appearance of apoptotic bodies at 0.5 uM measured after 24 hrs by Hoechst 33342/propidium iodide staining based fluorescence microscopic analysis; type: functional, cell-based
# [37] = system: HL-60(TB); test: Antiproliferative activity against human HL-60(TB) cells assessed as relative cell growth at 10 uM incubated for 48 hrs and measured by SRB assay; type: functional; details: read-out: Activity
# [38] = system: KB 3-1; test: Antiproliferative activity against human KB 3-1 cells incubated for 72 hrs and measured by MTT assay; type: functional
# [39] = system: DNA; test: Binding affinity to DNA (unknown origin) assessed as DNA intercalation at 1 to 100 uM by measuring amount of methyl green dye replaced from DNA-methyl green complex; type: nucleic-acid assay; details: Homo sapiens; dose 1-100 µM
# [40] = system: HCT-116; test: Antiproliferative activity against human HCT-116 cells incubated for 72 hrs and measured by MTT assay; type: functional
# [41] = system: BALB/3T3; test: Antiproliferative activity against mouse BALB/3T3 cells incubated for 72 hrs and measured by MTT assay; type: functional
# [42] = system: RXF 393; test: Antiproliferative activity against human RXF 393 cells incubated for 48 hrs and measured by SRB assay; type: functional
# [43] = system: WM793; test: Antiproliferative activity against human WM793 cells incubated for 72 hrs and measured by MTT assay; type: functional
# [44] = system: Jurkat; test: Induction of apoptosis in human Jurkat cells assessed as cellular membrane blebbing at 0.5 uM measured after 24 hrs by Hoechst 33342/propidium iodide staining based fluorescence microscopic analysis; type: functional, cell-based
# [45] = system: MCF7; test: Antiproliferative activity against human MCF7 cells incubated for 72 hrs and measured by MTT assay; type: functional
# [46] = system: COLO 205; test: Antiproliferative activity against human COLO 205 cells assessed as relative cell growth at 10 uM incubated for 48 hrs and measured by SRB assay; type: functional; details: read-out: Activity
# [47] = system: SR; test: Antiproliferative activity against human SR cells assessed as relative cell growth at 10 uM incubated for 48 hrs and measured by SRB assay; type: functional; details: read-out: Activity
# [48] = system: SR; test: Antiproliferative activity against human SR cells incubated for 48 hrs and measured by SRB assay; type: functional
# [49] = system: K562; test: Antiproliferative activity against human K562 cells assessed as relative cell growth at 10 uM incubated for 48 hrs and measured by SRB assay; type: functional; details: read-out: Activity
# [50] = system: SK-OV-3; test: Antiproliferative activity against human SK-OV-3 cells incubated for 72 hrs and measured by MTT assay; type: functional
# [51] = system: Malme-3M; test: Antiproliferative activity against human Malme-3M cells assessed as relative cell growth at 10 uM incubated for 48 hrs and measured by SRB assay; type: functional; details: read-out: Activity
# [52] = system: UO-31; test: Antiproliferative activity against human UO-31 cells incubated for 48 hrs and measured by SRB assay; type: functional
# [53] = read-out: LC50 (the source's name)
smiles,measurement,setting,value
Cc1c(C(=O)Nc2ccc(SC#N)cc2)nnn1-c1ccc(C(C)C)cc1,Activity,[1],Active
same,GI50,[2],> 100 µM
same,growth at 10 µM,[3],80.1%
same,IC50,[4],0.028 µM
same,Activity,[5],26.7%
same,growth at 10 µM,[6],4.89%
same,Activity,[7],8.5%
same,IC50,[8],0.023 µM
same,GI50,[9],2.85 µM
same,TGI,[9],10.2 µM
same,CC50,[9]; [53],62 µM
same,growth at 10 µM,[10],-53.2%
same,GI50,[11],0.15 µM
same,TGI,[11],1.12 µM
same,CC50,[11]; [53],4.48 µM
same,GI50,[12],> 100 µM
same,GI50,[13],> 100 µM
same,GI50,[14],2.71 µM
same,TGI,[14],9.79 µM
same,CC50,[14]; [53],> 100 µM
same,GI50,[15],2.8 µM
same,TGI,[15],11.5 µM
same,CC50,[15]; [53],> 100 µM
same,GI50,[16],> 100 µM
same,GI50,[17],3.21 µM
same,TGI,[17],9.94 µM
same,CC50,[17]; [53],> 100 µM
same,GI50,[18],0.69 µM
same,GI50,[19],8.4 µM
same,GI50,[20],5.4 µM
same,growth at 10 µM,[21],-13.3%
same,Activity,[22],Active
same,GI50,[23],> 100 µM
same,growth at 10 µM,[24],13.7%
same,growth at 10 µM,[25],-17.1%
same,Activity,[26],Active
same,growth at 10 µM,[27],93.6%
same,Activity,[28],Active
same,growth at 10 µM,[29],-17.6%
same,GI50,[30],1.97 µM
same,TGI,[30],5.81 µM
same,CC50,[30]; [53],> 100 µM
same,Activity,[31],1.3
same,GI50,[32],> 100 µM
same,growth at 10 µM,[33],2.96%
same,growth at 10 µM,[34],-53.1%
same,growth at 10 µM,[35],82.6%
same,Activity,[36],Active
same,growth at 10 µM,[37],8.6%
same,GI50,[38],7.4 µM
same,Activity,[39],2.4%
same,GI50,[40],> 100 µM
same,GI50,[41],> 100 µM
same,GI50,[42],4.27 µM
same,TGI,[42],20.4 µM
same,CC50,[42]; [53],69.5 µM
same,GI50,[43],> 100 µM
same,Activity,[44],Active
same,GI50,[45],> 100 µM
same,growth at 10 µM,[46],89.4%
same,growth at 10 µM,[47],-19.9%
same,GI50,[48],1.77 µM
same,TGI,[48],5.51 µM
same,CC50,[48]; [53],> 100 µM
same,growth at 10 µM,[49],10.3%
same,GI50,[50],10 µM
same,growth at 10 µM,[51],95.1%
same,GI50,[52],2.88 µM
same,TGI,[52],15.5 µM
same,CC50,[52]; [53],> 100 µM
